# Assay results reported in ChEMBL document CHEMBL2074565, “Molecular mechanisms of organic cation transport in OCT2-expressing Xenopus oocytes” (Biochim Biophys Acta, 1999).
# T1: Solute carrier family 22 member 2 (Rattus norvegicus, UniProt Q9R0W2)
# T1 sequence (Q9R0W2 whole entry): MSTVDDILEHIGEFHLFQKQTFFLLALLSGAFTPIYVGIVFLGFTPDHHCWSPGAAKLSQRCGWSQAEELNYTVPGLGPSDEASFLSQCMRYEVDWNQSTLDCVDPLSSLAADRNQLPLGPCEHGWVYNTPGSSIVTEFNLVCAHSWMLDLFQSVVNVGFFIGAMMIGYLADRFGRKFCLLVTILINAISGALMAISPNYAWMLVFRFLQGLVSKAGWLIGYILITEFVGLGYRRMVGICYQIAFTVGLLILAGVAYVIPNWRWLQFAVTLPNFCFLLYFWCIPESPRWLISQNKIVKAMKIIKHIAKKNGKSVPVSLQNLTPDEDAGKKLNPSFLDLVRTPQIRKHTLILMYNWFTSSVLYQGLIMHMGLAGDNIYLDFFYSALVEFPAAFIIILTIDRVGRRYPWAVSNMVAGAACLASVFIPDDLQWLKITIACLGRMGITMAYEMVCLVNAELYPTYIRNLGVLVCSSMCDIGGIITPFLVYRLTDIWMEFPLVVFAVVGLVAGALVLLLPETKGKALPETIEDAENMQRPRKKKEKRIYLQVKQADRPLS
# T2: Solute carrier family 22 member 1 (Rattus norvegicus, UniProt Q63089)
# T2 sequence (Q63089 whole entry): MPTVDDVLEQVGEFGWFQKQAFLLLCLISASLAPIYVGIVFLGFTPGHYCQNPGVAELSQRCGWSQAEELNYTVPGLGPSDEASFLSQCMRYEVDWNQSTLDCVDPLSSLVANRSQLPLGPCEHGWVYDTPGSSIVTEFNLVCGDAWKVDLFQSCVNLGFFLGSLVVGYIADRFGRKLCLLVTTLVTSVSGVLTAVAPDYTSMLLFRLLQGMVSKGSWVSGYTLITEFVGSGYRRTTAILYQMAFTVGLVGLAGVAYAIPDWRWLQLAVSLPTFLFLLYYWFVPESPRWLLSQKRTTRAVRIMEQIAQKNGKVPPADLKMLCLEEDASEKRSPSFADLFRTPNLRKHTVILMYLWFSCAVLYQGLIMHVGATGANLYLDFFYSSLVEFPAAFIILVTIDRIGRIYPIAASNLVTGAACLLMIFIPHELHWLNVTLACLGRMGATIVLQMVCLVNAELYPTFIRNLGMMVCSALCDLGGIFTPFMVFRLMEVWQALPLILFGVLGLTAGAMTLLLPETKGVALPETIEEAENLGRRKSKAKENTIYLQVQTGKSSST
# B1: Solute carrier family 22 member 2 (Rattus norvegicus) (protein)
# chain: T1 sequence (Q9R0W2 whole entry)
# Tests used:
# [1] = target: T1, Solute carrier family 22 member 2; experiment: TP_TRANSPORTER: inhibition of TEA uptake (TEA: 100 uM) in Xenopus laevis oocytes; format: functional, cell-based, Oocyte
# [2] = target: T2, Solute carrier family 22 member 1
# [3] = target: T1, Solute carrier family 22 member 2; experiment: TP_TRANSPORTER: inhibition of TEA uptake (TEA: 250 uM, Levofloxacin: 5000 uM) in Xenopus laevis oocytes; format: functional, cell-based; conditions: oocyte
# [4] = substrate: CC[N+](CC)(CC)CC; experiment: cells, lysate or membranes named
Molecule,IC50 [1] [µM],IC50 [2] [µM],Activity [3],Km [4] [µM]
CCN1/C(=C/c2ccc3ccccc3[n+]2CC)C=Cc2ccccc21,13.8,,,
C[N+](C)(C)CCO [CHOLINE],159,398,,
CN/C(=N/CCSCc1nc[nH]c1C)NC#N [CIMETIDINE],373,329,,
C[C@H]1COc2c(N3CCN(C)CC3)c(F)cc3c(=O)c(C(=O)O)cn1c23.C[C@H]1COc2c(N3CCN(C)CC3)c(F)cc3c(=O)c(C(=O)O)cn1c23.O [LEVOFLOXACIN],,,inhibitor [+],
B1,,,,33.8
